Reference: US20220331492A1, “COMPOSITION AND METHOD FOR CONTROLLED DRUG RELEASE FROM A TISSUE” (Bard Shannon Limited, priority 2017, published 2022)

Key:
[1] = cited from earlier work
[2] = mixed with fibrin glue; cited from earlier work
[3] = In vitro drug release from antibiotic-encapsulated PLGA microparticles; type: physicochemical; details: drug encapsulated in free PLGA (50:50) microparticles; buffer, 37° C., 120 rpm
Experimental: The amount of antibiotic was determined by dissolving 20 mg beads in 1 mL NaOH 1 M at 37° C. After complete dissolution, 1 mL of HCl 1 M was added to neutralize the pH. […] A mixture of NaOH 1 M and HCl 1 M (1:1) was used as a blank.
The gentamicin concentration was determined by a colormetric assay: 0.5 mL of the gentamicin solution was mixed with 0.35 mL of sodium phosphate buffer (50 mM, pH 7.4) and 0.15 mL of 1.25% ninhydrin solution. The reaction occurred at 95° C. for 15 minutes and the tubes were then cooled in an ice-water bath for 10 min. The UV-visible spectra over the wavelength range of 200-700 nm were measured using the mixture of ninhydrin and the respective buffer solution at the appropriate concentrations as the blanks. The gentamicin concentration was calculated at the maximal absorbance (λmax˜315 nm).
The microspheres (25 mg of ciprofloxacin-encapsulated PLGA beads, 80 mg of gentamicin encapsulated PLGA beads, 40 mg of vancomycin-encapsulated PLGA beads) were placed into glass vials filled with 10 mL solution (PBS for vancomycin and ciprofloxacin-encapsulated PLGA beads and sodium phosphate buffer for gentamicin encapsulated PLGA beads). The vials were placed in an orbital shaker incubator at 37° C., where they were shaken at 120 rpm. […] Finally, the 1.5 mL of suspension were returned back into the glass vials. For gentamicin, the reaction with ninhydrin is irreversible. 0.5 ml, of the solution was replaced each day with fresh sodium phosphate buffer to maintain a constant volume.

[4] = Release of ciprofloxacin from PLGA microparticles embedded in enzymatically crosslinked gelatin matrix; type: physicochemical
Experimental: Entrapment of microparticles in enzymatically crosslinked gelatin hydrogel was performed as follows.
This solution was mixed with 5.0 gr of gelatin solution. 0.25 gr of the mixture was cast in a glass vial, and curing occurred at 37° C. for 15 min. 5 mL of PBS was added to the vial to wash the gel. An additional 5 mL of PBS was added and the vial was placed in an orbital shaker incubator at 37° C. where it was shaken at 120 rpm. Once a day, 1.5 mL of the cured gel extract was centrifuged and 1 mL of the supernatant was taken to spectrophotometer to measure the drug concentration. After measurement, the 1.5 mL extract was returned back into the glass vials, crosslinked gelatin without beads was casted according to the same procedure and the extract was used as blank.

[5] = test system: Bacillus subtilis (ATCC 6633); assay: Agar disk-diffusion (Kirby-Bauer) assay of crosslinked gelatin discs containing antibiotic PLGA beads; type: cell-based; details: crosslinked gelatin hydrogel containing drug-loaded PLGA MPs; gels incubated in saline for 14 days
Experimental: (§1) The bacteria used was Bacillus subtilis, which serves as a model microorganism for gram positive bacteria.
3 discs of 0.2 gr crosslinked gelatin containing 2% vancomycin-gentamicin-encapsulated PLGA beads were casted as previously reported 3 additional discs without beads were also casted and used as negative control. Filters containing 30 μg antibiotics (gentamicin or vancomycin) were used as positive controls.
The gel discs with and without beads and the filter containing antibiotics were placed in LB agar plates on which 100 μl of bacterium suspension had been evenly spread. The petri dishes were placed in an orbital shaker incubator at 37° C. where a horizontal shake was performed at 120 rpm.

[6] = test system: Bacillus subtilis (ATCC 6633); assay: Microdilution assay of hydrogel disc extracts versus MIC; type: cell-based; details: extracts of crosslinked gelatin hydrogel containing 2% drug-loaded PLGA beads; throughout the study (1-14 days)
Experimental: as §1
6 discs of 0.2 gr crosslinked gelatin containing 2% vancomycin/gentamicin-encapsulated PLGA beads were casted in plastic mold of 12 mm diameter. After […] of curing at 37° C., the gels were separately placed in glass vial filled with 1.5 mL sodium phosphate buffer. The vials were placed in an incubator at 37° C. After 1, 2, 4, 7, 11 and 14 days, the gel was taken out and the hydrogel extract was frozen until test.
The antibacterial activity of the hydrogel discs extracts was studied by employing a microdilution method (FIG. 3b). Plates were prepared under sterile conditions. 100 μL of test materials were pipetted into the first column of the sterile 96-well plate. To all other wells 50 μL of saline was added. Serial dilutions were performed using a multichannel pipette. Tips were discarded after use such that each well had 50 μL of the test material in serially descending concentrations. […]
After 24 hours, the OD of each well was measured at 600 nm to determinate the presence or absence of bacterium. The lowest concentration at which […] was taken as the MIC value.

| Compound | release kinetics after initial burst release [3] | bacteria killing (ring around the gel) in agar diffusion assay [5] | concentration of the eluted antibiotic drug relative to MIC [6] | other results |
| --- | --- | --- | --- | --- |
| CCOC(=O)c1ccc(N)cc1 [Benzocaine] |  |  |  | water solubility [1]: very low |
| Cc1nnc(SCC2=C(C(=O)O)N3C(=O)[C@@H](NC(=O)Cn4cnnn4)[C@H]3SC2)s1 [cefazolin] |  |  |  | release time [2]: 2 days |
| O=C(O)c1cn(C2CC2)c2cc(N3CCNCC3)c(F)cc2c1=O [ciprofloxacin] | zero order kinetics |  |  | time over which the drug eluted ([4]; PLGA MPs embedded in in situ cross-linkable gelatin matrix): 2 weeks; release rate of MPs embedded in gelatin matrix compared to free MPs ([4]; PLGA MPs embedded in in situ enzymatically crosslinked gelatin, PBS, 37° C.): somewhat slower |
| CN[C@H](CC(C)C)C(=O)N[C@H]1C(=O)N[C@@H](CC(N)=O)C(=O)N[C@H]2C(=O)N[C@H]3C(=O)N[C@H](C(=O)N[C@H](C(=O)O)c4cc(O)cc(O)c4-c4cc3ccc4O)[C@H](O)c3ccc(c(Cl)c3)Oc3cc2cc(c3O[C@@H]2O[C@H](CO)[C@@H](O)[C@H](O)[C@H]2O[C@H]2C[C@](C)(N)[C@H](O)[C@H](C)O2)Oc2ccc(cc2Cl)[C@H]1O [vancomycin] | zero order kinetics | still had enough drug remaining within the matrix to induce bacteria killing | considerably above MIC |  |
| gentamycin | zero order kinetics | still had enough drug remaining within the matrix to induce bacteria killing | considerably above MIC |  |
